The values below come from US9150510B2, “Amino acid derivative” (NIPPON ZOKI PHARMACEUTICAL CO., LTD., priority 2008, dated 2015).

Where a name gives a salt, the structure may show the parent alone.

The test system of one series is ddY-type mice. As to the kind of experiment: Analgesic efficacy test (1): acetic acid writhing test (nociceptive pain model animal). To be noted: Mus musculus, 25 min, writhing number, male ddY mice, acetic acid i.p. 25 min after administration, mean ± standard error, read-out: Percent Suppression (%); for inhibition in vivo at 100 mg/kg: oral single dose 100 mg/kg; for inhibition in vivo at 10 mg/kg: oral single dose 10 mg/kg. Type of series: in vivo. An excerpt:
A compound of the present invention was orally administered to mice, to carry out an analgesic efficacy test according to acetic acid writhing test (nociceptive pain model animal). As an experimental animal, 4-week old male ddY-type mice were previously bred, and thereafter 8 mice per one group were used in the experiment. A solution or suspension prepared by dissolving or suspending a compound of the present invention in a 0.5% (w/v) aqueous CMC-Na solution was orally administered as a test substance in a single dose. While, to a control group, a 0.5% (w/v) aqueous CMC-Na solution was administered in the same manner. After 25 minutes from administration, the mice were intraperitoneally administered with a 0.7% (v/v) acetic acid/physiological saline at the dose of 10 mL/kg. From 5 minutes thereafter, writhing number in a 10-minute period was counted, and a suppressive rate for each individual (mean±standard error) was calculated by the following formula: […]
In the test for significance difference, Baltlett's test was carried out in the comparison between multiple groups of the group administered with test substance with the control group. In the case of homoscedasticity, Dunnett's multiple comparison test of parametrics, and in the case of heteroscedasticity, Dunnett's multiple comparison test of non-parametrics were used. In addition, in the test of dose dependency, Jockheere-Terpstra's test was used. In all cases, significance difference was considered to be found at P<0.05.
Background: An intraperitoneal irritant provokes the stretching counted in writhing tests.

The nature of series [1]: Test of blood kinetics in the rats. The class given is in vivo. Particulars: rat, plasma, 2 mg/kg, fasted Wistar male rats, oral single dose of mixed solution of five compounds, each compound 2 mg/5 mL/kg, n=5, LC-MS; for AUC(0-inf): read-out: AUC0-∞ (area under the curve for concentration in blood, time 0 to infinite hours); for Cmax: read-out: Cmax (maximum concentration in plasma). As to the method:
Ten milligrams of a compound of the present invention was properly converted to a sodium salt with the same amount of sodium hydroxide, where necessary, and each was dissolved in 5 mL of water. Five compounds each among these aqueous solutions of the compounds of the present inventions were mixed, to prepare a mixed solution containing 0.4 mg/mL each of each compound. Six-week old Wistar SPF male rats that were fasted were orally administered with the mixed solution in a single dose using a gavage tube (each compound 2 mg/5 mL/kg, n=5). At time points of 0.25, 0.5, 1, 2, 4, and 8 hours after the administration, about 150 μL of blood was collected using a heparin-added capillary tube from veins of rat tails. The capillary tubes were centrifuged to collect the plasma. The plasma sample was deprotenized and the supernatant was diluted to prepare each of measurement sample solutions. The concentration of the compound of the present invention in each of measurement sample solutions was quantified using LC-MS, and Cmax (maximum concentration in plasma) and AUC (area under the curve for concentration in blood, time 0 to infinite (∞) hours) of the compounds of the present invention were calculated.

Consider `COc1ccc(C[C@H](NC(=O)C=Cc2ccccc2C#N)C(=O)O)cc1` [Compound 46, N-[3-(2-Cyanophenyl)acryloyl]-O^4-methyl-L-tyrosine], for which the inhibition in vivo at 100 mg/kg with ddY-type mice came out at 38.7 ± 11.3%.

Turning to `Cn1cc(C[C@H](NC(=O)C=Cc2ccccc2O)C(=O)O)c2ccccc21` [Compound 26, N^α-[3-(2-Hydroxyphenyl)acryloyl]-1-methyl-L-tryptophan], the inhibition in vivo at 10 mg/kg in the series on ddY-type mice worked out at 30.5 ± 9.2%.

As for `Cn1cc(C[C@H](NC(=O)C=Cc2c(F)cccc2F)C(=O)O)c2ccccc21` [Compound 31, N^α-[3-(2,6-Difluorophenyl)acryloyl]-1-methyl-L-tryptophan], the inhibition in vivo at 100 mg/kg in the series with ddY-type mice was determined as 31.5 ± 9.7%.

Regarding `Cn1cc(C[C@H](NC(=O)C(C#N)=Cc2ccccc2F)C(=O)O)c2ccccc21` [Compound 37, N^α-[2-Cyano-3-(2-fluorophenyl)acryloyl]-1-methyl-L-tryptophan], the inhibition in vivo at 10 mg/kg in the series on ddY-type mice came to 37.9 ± 7.5%. In series [1], the AUC(0-inf) stood at 6800 ng·h/mL and the Cmax was determined as 1500 ng/mL.

As to `Cn1cc(C[C@H](NC(=O)C=Cc2cccc(C#N)c2)C(=O)O)c2ccccc21` [Compound 34, N^α-[3-(3-Cyanophenyl)acryloyl]-1-methyl-L-tryptophan], the inhibition in vivo at 10 mg/kg in the series with ddY-type mice came to 45.2 ± 6.3%. In series [1], the AUC(0-inf) turned out to be 16500 ng·h/mL and the Cmax came out at 3200 ng/mL.

Consider `COc1ccc(C[C@H](NC(=O)C=Cc2cccc(O)c2)C(=O)O)cc1` [Compound 43, N-[3-(3-Hydroxyphenyl)acryloyl]-O^4-methyl-L-tyrosine], for which the inhibition in vivo at 10 mg/kg in the series with ddY-type mice was determined as 45.3 ± 10.8%.

Take `COc1ccc(C[C@H](NC(=O)C=Cc2ccccc2C(F)(F)F)C(=O)O)cc1` [Compound 47, O^4-Methyl-N-[3-(2-Trifluoromethylphenyl)acryloyl]-L-Tyrosine]: the inhibition in vivo at 100 mg/kg in the series with ddY-type mice stood at 36.2 ± 11.2%.

Take `O=C(C=Cc1ccccc1F)N[C@@H](CO)C(=O)O` [Compound 66, N-[3-(2-Fluorophenyl)acryloyl]-L-serine]: the inhibition in vivo at 100 mg/kg in the series on ddY-type mice is 56 ± 6.9%.

In the case of `COc1ccc(C[C@H](NC(=O)C=Cc2ccc(F)cc2)C(=O)O)cc1` [Compound 42, N-[3-(4-Fluorophenyl)acryloyl]-O^4-methyl-L-tyrosine], the inhibition in vivo at 100 mg/kg in the series with ddY-type mice came out at 52.7 ± 8.3%. Besides, in series [1], the AUC(0-inf) came out at 57700 ng·h/mL and the Cmax was 18800 ng/mL.

For `COc1ccc(C[C@H](NC(=O)C=Cc2cc(C(F)(F)F)cc(C(F)(F)F)c2)C(=O)O)cc1` [Compound 53, N-{3-[3,5-Bis(trifluoromethyl)phenyl]acryloyl}-O^4-methyl-L-tyrosine], in the series with ddY-type mice, the inhibition in vivo at 100 mg/kg is 32 ± 14.6%.

With `COc1ccc(C[C@H](NC(=O)C=Cc2ccccc2OC)C(=O)O)cc1` [Compound 48, N-[3-(2-Methoxyphenyl)acryloyl]-O^4-methyl-L-tyrosine], the inhibition in vivo at 10 mg/kg in the series with ddY-type mice came out at 43.2 ± 7.3%.

Consider `COc1ccc(C[C@H](NC(=O)C=Cc2ccc(F)cc2F)C(=O)O)cc1` [Compound 51, N-[3-(2,4-Difluorophenyl)acryloyl]-O^4-Methyl-L-Tyrosine], for which the inhibition in vivo at 10 mg/kg in the series on ddY-type mice was found to be 42.2 ± 9.1%. Besides, in series [1], the AUC(0-inf) was found to be 116000 ng·h/mL and the Cmax is 33000 ng/mL.

Turning to `Cn1cc(C[C@H](NC(=O)C=Cc2ccccc2C#N)C(=O)O)c2ccccc21` [Compound 30, N^α-[3-(2-Cyanophenyl)acryloyl]-1-methyl-L-tryptophan], the inhibition in vivo at 10 mg/kg in the series with ddY-type mice is 35.8 ± 9.9%. Besides, in series [1], the AUC(0-inf) turned out to be 13400 ng·h/mL and the Cmax stood at 3600 ng/mL.

Take `Cn1cc(C[C@H](NC(=O)C=Cc2ccc(Oc3ccccc3)cc2)C(=O)O)c2ccccc21` [Compound 35, 1-Methyl-N^α-[3-(4-phenoxyphenyl)acryloyl]-L-tryptophan]: the inhibition in vivo at 100 mg/kg in the series with ddY-type mice came out at 55.2 ± 7.4%.

Take `COc1ccc(C[C@H](NC(=O)C=Cc2cccc(F)c2)C(=O)O)cc1` [Compound 41, N-[3-(3-Fluorophenyl)acryloyl]-O^4-methyl-L-tyrosine]: the inhibition in vivo at 100 mg/kg in the series with ddY-type mice was 47.3 ± 15.7%.

For `N#CC(=Cc1ccccc1)C(=O)N[C@@H](Cc1c[nH]c2ccccc12)C(=O)O` [Compound 25, N^α-(2-Cyano-3-phenylacryloyl)-L-tryptophan], the inhibition in vivo at 10 mg/kg with ddY-type mice amounted to 41.2 ± 11.1%. In addition, in series [1], the AUC(0-inf) worked out at 6800 ng·h/mL and the Cmax was 1500 ng/mL.

As for `O=C(C=Cc1cccc(O)c1)N[C@@H](Cc1c[nH]c2ccccc12)C(=O)O` [Compound 6, N^α-[3-(3-Hydroxyphenyl)acryloyl]-L-tryptophan], the inhibition in vivo at 100 mg/kg in the series on ddY-type mice is 39.2 ± 15.4%.

On to `NCCC[C@H](NC(=O)C=Cc1ccccc1F)C(=O)O` [Compound 63, N^α-[3-(2-Fluorophenyl)acryloyl]-L-ornithine hydrochloride], for which the inhibition in vivo at 10 mg/kg with ddY-type mice was 41.1 ± 7.8%.

For `Cn1cc(C[C@H](NC(=O)C=Cc2ccc(F)cc2)C(=O)O)c2ccccc21` [Compound 28, N^α-[3-(4-Fluorophenyl)acryloyl]-1-methyl-L-tryptophan], the inhibition in vivo at 10 mg/kg in the series on ddY-type mice turned out to be 56.5 ± 5.3%. In series [1], the AUC(0-inf) worked out at 183000 ng·h/mL and the Cmax is 37700 ng/mL.

With `COc1ccc(C[C@H](NC(=O)C=Cc2cc(F)ccc2F)C(=O)O)cc1` [Compound 52, N-[3-(2,5-Difluorophenyl)acryloyl]-O^4-methyl-L-tyrosine], the inhibition in vivo at 3 mg/kg in the series with ddY-type mice (oral single dose 3 mg/kg) amounted to 50.9 ± 7.4%. Further, in series [1], the AUC(0-inf) is 38200 ng·h/mL and the Cmax came out at 18000 ng/mL.

As for `O=C(C=Cc1ccccc1F)N[C@@H](Cc1ccc(O)cc1)C(=O)O` [Compound 62, N-[3-(2-Fluorophenyl)acryloyl]-L-tyrosine], the inhibition in vivo at 10 mg/kg with ddY-type mice stood at 39.2 ± 13.5%.

Regarding `COc1ccc(C[C@H](NC(=O)C=Cc2cccc(C#N)c2)C(=O)O)cc1` [Compound 54, N-[3-(3-Cyanophenyl)acryloyl]-O^4-methyl-L-tyrosine], in the series on ddY-type mice, the inhibition in vivo at 100 mg/kg turned out to be 33.3 ± 10%.

As for `NCCCC[C@H](NC(=O)C=Cc1ccccc1F)C(=O)O` [Compound 61, N^α-[3-(2-Fluorophenyl)acryloyl]-L-lysine hydrochloride], the inhibition in vivo at 100 mg/kg with ddY-type mice was found to be 40.5 ± 7.8%.

For the compound `COc1ccc(C[C@H](NC(=O)C=Cc2ccc(C#N)cc2)C(=O)O)cc1` [Compound 56, N-[3-(4-Cyanophenyl)acryloyl]-O^4-methyl-L-tyrosine], in the series on ddY-type mice, the inhibition in vivo at 100 mg/kg is 48.7 ± 10.1%. In series [1], the AUC(0-inf) was found to be 7000 ng·h/mL and the Cmax was determined as 3500 ng/mL.

On to `O=C(C=Cc1ccccc1Cl)N[C@@H](Cc1c[nH]c2ccccc12)C(=O)O` [Compound 12, N^α-[3-(2-Chlorophenyl)acryloyl]-L-tryptophan], for which the inhibition in vivo at 100 mg/kg with ddY-type mice worked out at 34.9 ± 11.5%.

For `NC(=O)CC[C@H](NC(=O)C=Cc1ccccc1F)C(=O)O` [Compound 65, N^α-[3-(2-Fluorophenyl)acryloyl]-L-glutamine], the inhibition in vivo at 100 mg/kg in the series on ddY-type mice worked out at 31.6 ± 13.1%.

As for `COc1ccc(C[C@H](NC(=O)C=Cc2ccccc2Cl)C(=O)O)cc1` [Compound 49, N-[3-(2-Chlorophenyl)acryloyl]-O^4-methyl-L-tyrosine], the inhibition in vivo at 100 mg/kg in the series on ddY-type mice was 31.8 ± 7%.

With `COc1ccc(C[C@H](NC(=O)C=Cc2ccccc2F)C(=O)O)cc1` [Compound 40, N-[3-(2-Fluorophenyl)acryloyl]-O^4-methyl-L-tyrosine], in the series on ddY-type mice, the inhibition in vivo at 10 mg/kg was determined as 42.3 ± 7%. Also, in series [1], the AUC(0-inf) was 61700 ng·h/mL and the Cmax worked out at 48700 ng/mL.

With `COc1ccc(C[C@H](NC(=O)C=Cc2ccc(O)cc2)C(=O)O)cc1` [Compound 44, N-[3-(4-Hydroxyphenyl)acryloyl]-O^4-methyl-L-tyrosine], the inhibition in vivo at 10 mg/kg in the series on ddY-type mice amounted to 48 ± 10.3%.

For the compound `O=Cn1cc(C[C@H](NC(=O)C=Cc2ccccc2F)C(=O)O)c2ccccc21` [Compound 68, N^α-[3-(2-Fluorophenyl)acryloyl]-1-formyl-L-tryptophan], in the series with ddY-type mice, the inhibition in vivo at 100 mg/kg amounted to 55.4 ± 9.9%.

For `O=C(C=Cc1ccc(O)cc1)N[C@@H](Cc1c[nH]c2ccccc12)C(=O)O` [Compound 7, N^α-[3-(4-Hydroxyphenyl)acryloyl]-L-tryptophan], in the series with ddY-type mice, the inhibition in vivo at 100 mg/kg stood at 37.3 ± 11.8%.

Consider `COc1ccc(C[C@H](NC(=O)C=Cc2c(F)cccc2F)C(=O)O)cc1` [Compound 50, N-[3-(2,6-Difluorophenyl)acryloyl]-O^4-methyl-L-tyrosine], for which, in the series on ddY-type mice, the inhibition in vivo at 100 mg/kg came to 35.1 ± 15.4%.
